Assay results reported in the NIST ThermoML archive (doi:10.1016/j.jct.2019.02.031).
± gives the expanded uncertainty stated by the source.

Assays:
[1] = 101 kPa, Liquid; for viscosity: Falling or rolling sphere viscometry; for mass density: Vibrating tube method
[2] = molar heat capacity at constant pressure; conditions: 101.33 kPa, Liquid, DSC
[3] = xn = mol fraction of the nth substance listed; conditions: 101 kPa, Liquid, x2 = 0; for viscosity: Falling or rolling sphere viscometry; for mass density: Vibrating tube method

Cn1cc[n+](CCC[N+](C)(C)C)c1.N#C[N-]C#N.N#C[N-]C#N
Conditions | mass density, [1] [kg/m3] | molar heat capacity at constant pressure, [2] [J/K/mol] | viscosity, [1] [mPa·s]
283.15 K | 1162.82 ± 2 | – | 4998 ± 870
288.15 K | 1159.76 ± 2 | – | 2736 ± 430
293.15 K | 1156.74 ± 2 | – | 1608 ± 240
298.15 K | 1153.73 ± 2 | 519.44 ± 85 | 1007 ± 140
303.15 K | 1150.76 ± 2 | 521.65 ± 85 | 662.9 ± 85
308.15 K | 1147.8 ± 2 | 523.85 ± 86 | 455.4 ± 55
313.15 K | 1144.89 ± 2 | 526.06 ± 86 | 324.6 ± 37
318.15 K | 1142 ± 2 | 527.95 ± 86 | 239.7 ± 27
323.15 K | 1139.11 ± 2 | 530.48 ± 87 | 181.2 ± 20
328.15 K | 1136.24 ± 2 | 532.69 ± 87 | 141.1 ± 15
333.15 K | 1133.4 ± 2 | 535.21 ± 88 | 111.9 ± 12
338.15 K | – | 537.1 ± 88 | –
343.15 K | – | 539.62 ± 88 | –
348.15 K | – | 541.83 ± 89 | –
353.15 K | – | 543.72 ± 89 | –
358.15 K | – | 546.25 ± 90 | –
363.15 K | – | 548.14 ± 90 | –
368.15 K | – | 550.66 ± 90 | –
373.15 K | – | 553.19 ± 91 | –
378.15 K | – | 555.39 ± 91 | –
383.15 K | – | 557.92 ± 91 | –
388.15 K | – | 560.12 ± 92 | –
393.15 K | – | 562.33 ± 92 | –
398.15 K | – | 564.85 ± 92 | –
403.15 K | – | 567.06 ± 93 | –
408.15 K | – | 569.27 ± 93 | –
413.15 K | – | 571.79 ± 94 | –
418.15 K | – | 574.32 ± 94 | –
423.15 K | – | 576.21 ± 94 | –

CC(C)O [propan-2-ol]
[1]
Conditions | mass density [kg/m3] | viscosity [mPa·s]
283.15 K | 793.67 ± 2 | 3.352 ± 0.34
288.15 K | 789.58 ± 2 | 2.843 ± 0.28
293.15 K | 785.44 ± 2 | 2.423 ± 0.24
298.15 K | 781.24 ± 2 | 2.08 ± 0.21
303.15 K | 776.97 ± 2 | 1.792 ± 0.18
308.15 K | 772.62 ± 2 | 1.554 ± 0.16
313.15 K | 768.18 ± 2 | 1.352 ± 0.14
318.15 K | 763.65 ± 2 | 1.183 ± 0.12
323.15 K | 759.01 ± 2 | 1.039 ± 0.1
328.15 K | 754.26 ± 2 | 0.918 ± 0.092
333.15 K | 749.39 ± 2 | 0.813 ± 0.082

CC(C)O [propan-2-ol] + Cn1cc[n+](CCC[N+](C)(C)C)c1.N#C[N-]C#N.N#C[N-]C#N
[3]
Conditions | mass density [kg/m3] | viscosity [mPa·s]
283.15 K | 793.67 ± 2 | 3.352 ± 0.34
288.15 K | 789.58 ± 2 | 2.843 ± 0.28
293.15 K | 785.44 ± 2 | 2.423 ± 0.24
298.15 K | 781.24 ± 2 | 2.08 ± 0.21
303.15 K | 776.97 ± 2 | 1.792 ± 0.18
308.15 K | 772.62 ± 2 | 1.554 ± 0.16
313.15 K | 768.18 ± 2 | 1.352 ± 0.14
318.15 K | 763.65 ± 2 | 1.183 ± 0.12
323.15 K | 759.01 ± 2 | 1.039 ± 0.1
328.15 K | 754.26 ± 2 | 0.918 ± 0.092
333.15 K | 749.39 ± 2 | 0.813 ± 0.082
